# Test results reported in the Deep4Chem optical property database.
# Experiment: solvent given as SMILES
structure (smiles),measurement,setting,value
CC1=CC(C)=[N+]2C1=C(c1c3ccccc3cc3ccccc13)c1c(C)cc(C)n1[B-]2(F)F,absorption maximum,in CC#N,502 nm
same,absorption maximum,in CCCCCC,504 nm
same,absorption maximum,in CCO,505 nm
same,absorption maximum,in CN(C)C=O,505 nm
same,absorption maximum,in Cc1ccccc1,508 nm
same,absorption maximum,in ClCCl,506 nm
CCCCCCc1cc2c3cscc3c3cc(CCCCCC)sc3c2s1,absorption maximum,in ClC(Cl)Cl,393 nm
CC[N+]1(CC)CN2C(=N1)C(C(=O)O)=Cc1ccc(Cl)cc12,absorption maximum,in O,367 nm
CC1=[N+]2C(=C(c3ccc(C(=C(c4ccccc4)c4ccccc4)c4ccccc4)cc3)c3ccc(/C=C/c4ccc(C(=C(c5ccccc5)c5ccccc5)c5ccccc5)cc4)n3[B-]2(F)F)C=C1,absorption maximum,in C1CCOC1,587 nm
CC1=CC(C)=[N+]2C1=C(c1c3ccccc3c(-c3ccccc3)c3ccccc13)c1c(C)cc(C)n1[B-]2(F)F,absorption maximum,in CC#N,503 nm
same,absorption maximum,in CCCCCC,505 nm
same,absorption maximum,in CCO,504 nm
same,absorption maximum,in CN(C)C=O,507 nm
same,absorption maximum,in Cc1ccccc1,509 nm
same,absorption maximum,in ClCCl,507 nm
COC(=O)C(NC(=O)OC(C)(C)C)c1ccc2oc(-c3ccc(F)cc3)nc2c1 (stereo unspecified),absorption maximum,in CC1CCCCC1,317 nm
same,absorption maximum,in CC#N,314 nm
same,absorption maximum,in CO,302 nm
COc1cc2cc(/C=C/c3ccc(/C=C/c4ccc(/C=C(\C#N)C(=O)O)cc4)cc3)c(=O)oc2cc1OC,absorption maximum,in CC#N,415 nm
Cc1sc(-c2ccc(-c3nc(-c4ccccc4)c(-c4ccccc4)[nH]3)cc2)c(C)c1C1=C(c2c(C)n(C)c3ccccc23)C(F)(F)C(F)(F)C1(F)F,absorption maximum,in C1CCOC1,313 nm
CCOC(=O)c1c(-c2cc3ccc(OCC=C(C)C)cc3oc2=O)nn(-c2cccc(Cl)c2)c1C(=O)OCC,absorption maximum,in ClCCl,339 nm
Cc1ccc2ccc3cccc4ccc1c2c34,absorption maximum,in CCCCCC,338 nm
same,absorption maximum,in CO,338 nm
same,absorption maximum,in ClCCl,341 nm
Cc1ccc(C(=O)/C=C2\C(=O)Nc3ccccc32)cc1C,absorption maximum,in C1CCCCC1,335 nm
same,absorption maximum,in C1COCCO1,335 nm
same,absorption maximum,in CCCCCC,333 nm
same,absorption maximum,in CCOC(C)=O,335 nm
same,absorption maximum,in CN(C)C=O,338 nm
same,absorption maximum,in ClCCl,336 nm
same,absorption maximum,in O,338 nm
CCC1(CC)c2cc(-c3cccs3)ccc2-c2c1c1c(c3c2C(CC)(CC)c2cc(-c4cccs4)ccc2-3)C(CC)(CC)c2cc(-c3cccs3)ccc2-1,absorption maximum,in C1CCOC1,340 nm
CCn1c2ccc(S(=O)(=O)O)cc2c(=O)c2cc3c(cc21)c(=O)c1cc(S(=O)(=O)O)ccc1n3CCCCCC(=O)O,absorption maximum,in O,536 nm
Nc1ccc(C#Cc2ccc3ccc4ccc(C#Cc5ccc(N)cc5)c5ccc2c3c45)cc1,absorption maximum,in C1COCCO1,420 nm
same,absorption maximum,in CC(C)=O,421 nm
same,absorption maximum,in CCCCCC,421 nm
same,absorption maximum,in CCCCCCO,421 nm
same,absorption maximum,in CCO,419 nm
same,absorption maximum,in CCOC(C)=O,419 nm
same,absorption maximum,in CO,415 nm
same,absorption maximum,in Cc1ccccc1,417 nm
same,absorption maximum,in ClCCl,417 nm
CC(C)(C)c1ccc2c(c1)Cc1cc(C(C)(C)C)ccc1-2,absorption maximum,in C1CCCCC1,308 nm
CN(C)c1ccc2c(c1)-c1ccccc1C2=O,absorption maximum,in C1CCCCC1,400 nm
same,absorption maximum,in CC#N,431 nm
same,absorption maximum,in CCO,437 nm
same,absorption maximum,in c1ccccc1,420 nm
CCCCCCCCc1ccc(-c2ccc(/C=C(\C#N)c3ccc(-c4cccc5cccc(-c6ccc(/C(C#N)=C/c7ccc(-c8ccc(CCCCCCCC)cc8)cc7)cc6)c45)cc3)cc2)cc1,absorption maximum,in Cc1ccccc1,350 nm
CCCCCCCCC1(CCCCCCCC)c2cc(C#CC#Cc3ccc(N(c4ccccc4)c4ccccc4)cc3)ccc2-c2ccc(C=O)cc21,absorption maximum,in C1CCOC1,377 nm
same,absorption maximum,in C1COCCO1,383 nm
same,absorption maximum,in CC#N,375 nm
same,absorption maximum,in CC(C)=O,389 nm
same,absorption maximum,in CCCCCC,378 nm
same,absorption maximum,in CCOC(C)=O,381 nm
same,absorption maximum,in CN(C)C=O,382 nm
same,absorption maximum,in CS(C)=O,382 nm
same,absorption maximum,in Cc1ccccc1,387 nm
same,absorption maximum,in ClC(Cl)Cl,375 nm
same,absorption maximum,in ClCCl,365 nm
CC(C)(C)NC(=O)c1ccc(C(=O)NC(C)(C)C)c2c1c1c3ccccc3c3ccccc3c1c1c3ccccc3c3ccccc3c21,absorption maximum,in ClCCl,388 nm
CN(C)c1ccc(C(=O)c2ccccc2)cc1,absorption maximum,in C1CCCCC1,325 nm
same,absorption maximum,in CC#N,345 nm
same,absorption maximum,in CO,355 nm
same,absorption maximum,in CS(C)=O,350 nm
same,absorption maximum,in c1ccccc1,340 nm
COc1ccc(C2=CC3=C(c4c(C)cc(C)cc4C)c4cc(-c5ccc(OC)cc5)c(-c5ccc(OC)cc5)n4[B-](F)(F)[N+]3=C2c2ccc(OC)cc2)cc1,absorption maximum,in C1CCCCC1,621 nm
same,absorption maximum,in C1CCOC1,621 nm
same,absorption maximum,in CC#N,608 nm
same,absorption maximum,in Cc1ccccc1,625 nm
same,absorption maximum,in ClCCl,616 nm
Cc1cccn2c1cc1c3ccccc3nc(-c3ccc(Cl)o3)c12,absorption maximum,in CS(C)=O,405 nm
N#Cc1ccc(C[C@H](N)C(=O)O)cc1,absorption maximum,in C1CCOC1,236.81 nm
same,absorption maximum,in CCO,233.58 nm
same,absorption maximum,in O,233.33 nm
c1ccc(N(c2ccccc2)c2ccc3c(ccc4nc5ccc6cc(N(c7ccccc7)c7ccccc7)ccc6c5nc43)c2)cc1,absorption maximum,in C1CCCCC1,471 nm
same,absorption maximum,in C1CCOC1,474 nm
same,absorption maximum,in CN(C)C=O,477 nm
same,absorption maximum,in Cc1ccccc1,473 nm
same,absorption maximum,in ClCCl,476 nm
N#Cc1ccc(/C=C/C(F)(F)F)c(N)c1,absorption maximum,in C1CCOC1,367 nm
COc1ccc(-n2nc(C#N)c(N3CCCCC3)n2)cc1,absorption maximum,in CC#N,340 nm
Oc1cc2ccc3cc(O)cc4ccc(c1)c2c34,absorption maximum,in CO,381 nm
COc1ccccc1-c1c(-c2ccccc2O)nc(-c2ccc(C(F)(F)F)cc2)n1-c1ccc(C)cc1,absorption maximum,in C1CCOC1,313 nm
same,absorption maximum,in CC(C)O,311 nm
same,absorption maximum,in CO,309 nm
same,absorption maximum,in CS(C)=O,315 nm
same,absorption maximum,in ClC(Cl)Cl,314 nm
same,absorption maximum,in ClCCl,313 nm
O=c1c2cccc3cccc(c32)c2nc3c4ccccc4c4ccccc4c3n12,absorption maximum,in ClCCl,436 nm
c1ccc2[nH]c(-c3ccc(-c4ccc(-c5ccc(-c6nc7ccccc7[nH]6)cc5)cc4)cc3)nc2c1,absorption maximum,in CN(C)C=O,349 nm
Cc1ccc(Nc2ccc(Nc3ccc(C)cc3)c3c2C(=O)c2ccccc2C3=O)cc1,absorption maximum,in C1CCCCC1,639 nm
same,absorption maximum,in C1COCCO1,638 nm
same,absorption maximum,in CC(C)=O,638 nm
same,absorption maximum,in CCCCCCCCCCO,644 nm
same,absorption maximum,in CCCCCCCO,641 nm
same,absorption maximum,in CCCCCCO,642 nm
same,absorption maximum,in CCCCO,639 nm
same,absorption maximum,in CCO,637 nm
same,absorption maximum,in CN(C)C=O,643 nm
same,absorption maximum,in CO,636 nm
same,absorption maximum,in CS(C)=O,644 nm
same,absorption maximum,in ClC(Cl)(Cl)Cl,642 nm
same,absorption maximum,in c1ccccc1,642 nm
C(=C\c1nc(/C=C/c2ccc(-n3c4ccccc4c4ccccc43)cc2)nc(/C=C/c2ccc(-n3c4ccccc4c4ccccc43)cc2)n1)/c1ccc(-n2c3ccccc3c3ccccc32)cc1,absorption maximum,in C1CCOC1,381 nm
same,absorption maximum,in CC#N,376 nm
same,absorption maximum,in Cc1ccccc1,389 nm
same,absorption maximum,in ClCCl,383 nm
COC1=[N+]2C(=C(c3ccccc3)c3ccc(OC)n3[B-]2(F)F)C=C1,absorption maximum,in CC#N,510 nm
same,absorption maximum,in CCCCCC,513 nm
same,absorption maximum,in CCOC(C)=O,512 nm
same,absorption maximum,in CO,511 nm
same,absorption maximum,in ClCCl,515 nm
COC(=O)/C=C/C1=CC2=C(c3c(C)cc(C)cc3C)c3cccn3[B-](F)(F)[N+]2=C1,absorption maximum,in ClCCl,537 nm
CCCCCCCCC1(CCCCCCCC)c2cc(-c3ccc(C#N)cc3)ccc2-c2ccc(-c3ccc(C#N)cc3)cc21,absorption maximum,in ClC(Cl)Cl,341 nm
Cc1cc(C)c(-c2nnc(-c3ccc(-n4c5ccccc5c5ccccc54)cc3)o2)c(C)c1,absorption maximum,in Cc1ccccc1,340 nm
COc1ccc(C2=c3sc(-c4ccc(OC)cc4)c(-c4ccc(OC)cc4)c3=[N+]3C2=Nc2c(-c4ccc(OC)cc4)c4sc(-c5ccc(OC)cc5)c(-c5ccc(OC)cc5)c4n2[B-]3(F)F)cc1,absorption maximum,in ClC(Cl)Cl,784 nm
Cc1ccc(-c2cc3ccccc3oc2=O)cc1,absorption maximum,in C1CCOC1,328 nm
same,absorption maximum,in CCCCCC,328 nm
same,absorption maximum,in CCO,328 nm
same,absorption maximum,in CS(C)=O,330 nm
CC1=C(C#Cc2ccc(B(c3c(C)cc(C)cc3C)c3c(C)cc(C)cc3C)cc2)C(C)=[N+]2C1=C(c1ccccc1)c1c(C)c(C#Cc3ccc(B(c4c(C)cc(C)cc4C)c4c(C)cc(C)cc4C)cc3)c(C)n1[B-]2(F)F,absorption maximum,in ClCCl,576 nm
CC1=CC(C)=[N+]2C1=C(c1ccc(C)cc1)c1c(C)cc(/C=C/c3ccc4ccc5cccc6ccc3c4c56)n1[B-]2(F)F,absorption maximum,in CC1CCCO1,598 nm
COc1ccc(-c2cnc(/C=C/c3ccccc3)o2)cc1OC,absorption maximum,in ClCCl,350 nm
CCCCCCN1C(=O)c2cccc3cc(/N=C\c4ccc5c(c4)c4ccccc4n5CC)cc(c23)C1=O,absorption maximum,in ClC(Cl)Cl,340 nm
CCC1=C(C)C2=C(C)c3c(C)c(CC)c(C)n3[B-](F)(F)[N+]2=C1C,absorption maximum,in C1CCCCC1,522.5 nm
same,absorption maximum,in C1CCOC1,518.4 nm
same,absorption maximum,in C1COCCO1,518.6 nm
same,absorption maximum,in CC#N,514.8 nm
same,absorption maximum,in CC(C)=O,516 nm
same,absorption maximum,in CC(C)O,518.8 nm
same,absorption maximum,in CCC(C)C,520.4 nm
same,absorption maximum,in CCCCCC,521.1 nm
same,absorption maximum,in CCCCCCCC,521.2 nm
same,absorption maximum,in CCCCCCCCCCO,521.8 nm
same,absorption maximum,in CCCCCCCCO,521 nm
same,absorption maximum,in CCCCCCO,520.4 nm
same,absorption maximum,in CCCCO,519.4 nm
same,absorption maximum,in CCCO,518.9 nm
same,absorption maximum,in CCO,517.7 nm
same,absorption maximum,in CCOC(C)=O,516.4 nm
same,absorption maximum,in CCOCC,518.8 nm
same,absorption maximum,in CN1CCCC1=O,518.2 nm
same,absorption maximum,in CN(C)C=O,517.1 nm
same,absorption maximum,in CO,516.2 nm
same,absorption maximum,in Cc1ccccc1,522.5 nm
same,absorption maximum,in ClCCl,520 nm
same,absorption maximum,in OCC(F)(F)F,515.7 nm
same,absorption maximum,in OCCO,518 nm
same,absorption maximum,in OCCOc1ccccc1,522.3 nm
same,absorption maximum,in c1ccccc1,522.7 nm
CCC1=C(C)C2=C(C)c3cc(I)c(I)n3[B-](F)(F)[N+]2=C1C,absorption maximum,in C1CCCCC1,532 nm
same,absorption maximum,in CC(C)=O,515.5 nm
same,absorption maximum,in CCO,520 nm
same,absorption maximum,in CCOC(C)=O,518.5 nm
same,absorption maximum,in CO,518 nm
same,absorption maximum,in OCC(F)(F)F,511.5 nm
